Reference: patent US9458505B2, “Diagnosis of cowden and cowden-like syndrome by detection of decreased killin expression” (The Cleveland Clinic Foundation, priority 2011, dated 2016)

Assays:
PTEN expression = assay: Quantitative RT-PCR of PTEN expression in KILLIN-methylated patient lymphoblastoid cell lines after demethylation and/or histone deacetylase inhibition treatment; type: cell-based, human; settings: seven of the eight patient lymphoblastoid cell lines; decitabine 0.5 μM and/or TSA 200 nM; pooled result for demethylation and/or inhibition of histone deacetylation
Procedure: (§1) The quantitative reverse transcription PCRs were performed as previously described. Bennett et al., Cancer Res.; 67(10): 4657-4664 (2007). The study population included four controls and eight patients that were selected based on confirmed methylation status by bisulfite sequencing analysis and representation of the Cowden syndrome and Cowden-like syndrome condition.
(§2) The study population included eight patients that were selected based on confirmed methylation status by bisulfite sequencing analysis and representation of Cowden syndrome and Cowden-like syndrome condition. Demethylation treatment was performed with a cytosine analog, 5-aza-2′deoxycytidine (decitabine; Sigma), for 96 hours at 0.5 μM concentration with approximately 40% confluent suspension lymphoblastoid cells. Inhibition of histone deacetylation was performed with 200 nM concentration of Trichostatin A (TSA; Sigma) with approximately 40% confluent suspension lymphoblastoid cells for 48 hours, with or without 0.5 μM decitabine. The drug was changed daily, and the cells were collected for RNA isolation.

KILLIN expression = assay: Quantitative RT-PCR of KILLIN expression in KILLIN-methylated patient lymphoblastoid cell lines after demethylation and/or histone deacetylase inhibition treatment; type: cell-based, human; settings: pooled result for decitabine and/or TSA; for patient cell lines in which KILLIN expression was restored: 7 of the 8 patient lymphoblastoid cell lines, decitabine 0.5 μM and/or TSA 200 nM; for KILLIN expression increase following exposure to decitabine and/or TSA: patient lymphoblastoid cell lines, decitabine 0.5 μM 96 hours and/or TSA 200 nM 48 hours, normalized to untreated counterpart set as 1, 95% confidence interval 1.4-18.1
Procedure: as §1, §2

Row | SMILES | patient cell lines with significant decrease in PTEN expression (PTEN expression) [%] | patient cell lines in which KILLIN expression was restored (KILLIN expression) [%] | KILLIN expression increase following exposure to decitabine and/or TSA (KILLIN expression) [fold]
1 | CC(/C=C/C(=O)NO)=C\[C@@H](C)C(=O)c1ccc(N(C)C)cc1 [TSA, Trichostatin A] | 88 | 88 | 4.88
2 | Nc1ncn([C@H]2C[C@H](O)[C@@H](CO)O2)c(=O)n1 [decitabine, 5-aza-2′deoxycytidine] | 88 | 88 | 4.88
